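Exposure lasted 48 hours, with cells grown in 96-well plates and compounds tested at five concentrations. GI50 = concentration required for 50% inhibition of growth.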 Calls of active or inactive are those of the source. Cut-off read from the data, not from the text of the source: active = GI50 up to about 1.1 µM and inactive = higher.
Columns and labels:
Assay in all cases: growth of human tumour cells (NCI), 48 h
SK-OV-3 = tested on: SK-OV-3
HOP-92 = tested on: HOP-92
IGROV-1 = tested on: IGROV-1
Hs-578T = tested on: Hs-578T
SW-620 = tested on: SW-620
A549 = tested on: A549
U-251 = tested on: U-251
SK-MEL-28 = tested on: SK-MEL-28
OVCAR-8 = tested on: OVCAR-8
A498 = tested on: A498
SR = tested on: SR
Malme-3M = tested on: Malme-3M
MDA-MB-435 = tested on: MDA-MB-435
NCI-H522 = tested on: NCI-H522
TK-10 = tested on: TK-10
SF-268 = tested on: SF-268
NCI-H23 = tested on: NCI-H23
OVCAR-4 = tested on: OVCAR-4
RXF 393 = tested on: RXF 393
KM12 = tested on: KM12

Compound	GI50 (SK-OV-3)	GI50 (HOP-92)	GI50 (IGROV-1)	GI50 (Hs-578T)	GI50 (SW-620)	GI50 (A549)	GI50 (U-251)	GI50 (SK-MEL-28)	GI50 (OVCAR-8)	GI50 (A498)	GI50 (SR)	GI50 (Malme-3M)	GI50 (MDA-MB-435)	GI50 (NCI-H522)	GI50 (TK-10)	GI50 (SF-268)	GI50 (NCI-H23)	GI50 (OVCAR-4)	GI50 (RXF 393)	GI50 (KM12)
O=C(NC(c1ccccc1)C(O)C(=O)OCc1ccc2c(c1)C(=O)c1ccccc1C2=O)c1ccccc1 (stereo not given)	5.18 µM (inactive)	3.15 µM (inactive)	18.5 µM (inactive)	34.8 µM (inactive)	63.5 µM (inactive)	9.91 µM (inactive)	5.46 µM (inactive)	28.1 µM (inactive)	4.25 µM (inactive)	5.71 µM (inactive)	57.9 µM (inactive)	11.4 µM (inactive)	34.4 µM (inactive)	14.8 µM (inactive)	15.2 µM (inactive)	17.1 µM (inactive)	12 µM (inactive)	2.2 µM (inactive)	3.13 µM (inactive)	57.4 µM (inactive)
O=P(O)(O)OP(=O)(O)O	> 100 µM (inactive)	> 100 µM (inactive)	> 100 µM (inactive)	> 100 µM (inactive)	> 100 µM (inactive)	> 100 µM (inactive)	> 100 µM (inactive)	> 100 µM (inactive)	> 100 µM (inactive)	> 100 µM (inactive)	> 100 µM (inactive)	> 100 µM (inactive)	> 100 µM (inactive)	> 100 µM (inactive)	> 100 µM (inactive)	> 100 µM (inactive)	> 100 µM (inactive)	> 100 µM (inactive)	> 100 µM (inactive)	> 100 µM (inactive)
Cc1nnc2ccccc2c1O	> 100 µM (inactive)	> 100 µM (inactive)	> 100 µM (inactive)	> 100 µM (inactive)	> 100 µM (inactive)	> 100 µM (inactive)	> 100 µM (inactive)	> 100 µM (inactive)	> 100 µM (inactive)	> 100 µM (inactive)	25.9 µM (inactive)	> 100 µM (inactive)	> 100 µM (inactive)	> 100 µM (inactive)	> 100 µM (inactive)	> 100 µM (inactive)	> 100 µM (inactive)	> 100 µM (inactive)	> 100 µM (inactive)	> 100 µM (inactive)
CNC(=O)OCc1nc(SSC(C)(C)C)n(C)c1COC(=O)NC	17.1 µM (inactive)	1.78 µM (inactive)	8.13 µM (inactive)	2.22 µM (inactive)	1.61 µM (inactive)	14.2 µM (inactive)	12.9 µM (inactive)	1.84 µM (inactive)	2.07 µM (inactive)	9.38 µM (inactive)	1.05 µM (active)	1.86 µM (inactive)	4.83 µM (inactive)	1.16 µM (inactive)	6.11 µM (inactive)	6.75 µM (inactive)	2.71 µM (inactive)	2.01 µM (inactive)	1.45 µM (inactive)	17.3 µM (inactive)
CC(=O)NC(Cc1c[nH]c2ccccc12)C(=O)O (stereo not given)	> 100 µM (inactive)	> 100 µM (inactive)	> 100 µM (inactive)	> 100 µM (inactive)	> 100 µM (inactive)	> 100 µM (inactive)	> 100 µM (inactive)	> 100 µM (inactive)	> 100 µM (inactive)	> 100 µM (inactive)	> 100 µM (inactive)	> 100 µM (inactive)	> 100 µM (inactive)	> 100 µM (inactive)	> 100 µM (inactive)	> 100 µM (inactive)	> 100 µM (inactive)	> 100 µM (inactive)	> 100 µM (inactive)	> 100 µM (inactive)
CN(C)CCCSc1nc2ccccc2[nH]1	> 100 µM (inactive)	> 100 µM (inactive)	> 100 µM (inactive)	> 100 µM (inactive)	> 100 µM (inactive)	> 100 µM (inactive)	> 100 µM (inactive)	> 100 µM (inactive)	> 100 µM (inactive)	> 100 µM (inactive)	> 100 µM (inactive)	> 100 µM (inactive)	> 100 µM (inactive)	> 100 µM (inactive)	> 100 µM (inactive)	> 100 µM (inactive)	> 100 µM (inactive)	> 100 µM (inactive)	> 100 µM (inactive)	> 100 µM (inactive)
CC(O)(C(=O)N(O)c1ccc(Cl)cc1)c1ccc(Cl)cc1 (stereo not given)	33.1 µM (inactive)	20.3 µM (inactive)	19.9 µM (inactive)	16.9 µM (inactive)	31.3 µM (inactive)	26.4 µM (inactive)	23.6 µM (inactive)	33.3 µM (inactive)	27.2 µM (inactive)	25.5 µM (inactive)	13.8 µM (inactive)	28.1 µM (inactive)	24.7 µM (inactive)	18.6 µM (inactive)	29.7 µM (inactive)	23.7 µM (inactive)	23.4 µM (inactive)	37.9 µM (inactive)	26.8 µM (inactive)	12.8 µM (inactive)

— ChEMBL document CHEMBL1201862, “PubChem BioAssay data set” (2004)
